This is an account of results in US20070129409A1, “Androgen receptor modulators” (priority 2003, published 2007).

Changes are numbered by the printed parent chain. Read-outs that look alike come from different tables or passages of the source. A value given as a limit tells only on which side of the number the result lay.

In data set [1] the target is T1, hAR (human androgen receptor) (Homo sapiens, UniProt P10275).
T1 construct: made in house; host or cells: baculovirus/Sf9 insect cells
T1 sequence (P10275 1-920): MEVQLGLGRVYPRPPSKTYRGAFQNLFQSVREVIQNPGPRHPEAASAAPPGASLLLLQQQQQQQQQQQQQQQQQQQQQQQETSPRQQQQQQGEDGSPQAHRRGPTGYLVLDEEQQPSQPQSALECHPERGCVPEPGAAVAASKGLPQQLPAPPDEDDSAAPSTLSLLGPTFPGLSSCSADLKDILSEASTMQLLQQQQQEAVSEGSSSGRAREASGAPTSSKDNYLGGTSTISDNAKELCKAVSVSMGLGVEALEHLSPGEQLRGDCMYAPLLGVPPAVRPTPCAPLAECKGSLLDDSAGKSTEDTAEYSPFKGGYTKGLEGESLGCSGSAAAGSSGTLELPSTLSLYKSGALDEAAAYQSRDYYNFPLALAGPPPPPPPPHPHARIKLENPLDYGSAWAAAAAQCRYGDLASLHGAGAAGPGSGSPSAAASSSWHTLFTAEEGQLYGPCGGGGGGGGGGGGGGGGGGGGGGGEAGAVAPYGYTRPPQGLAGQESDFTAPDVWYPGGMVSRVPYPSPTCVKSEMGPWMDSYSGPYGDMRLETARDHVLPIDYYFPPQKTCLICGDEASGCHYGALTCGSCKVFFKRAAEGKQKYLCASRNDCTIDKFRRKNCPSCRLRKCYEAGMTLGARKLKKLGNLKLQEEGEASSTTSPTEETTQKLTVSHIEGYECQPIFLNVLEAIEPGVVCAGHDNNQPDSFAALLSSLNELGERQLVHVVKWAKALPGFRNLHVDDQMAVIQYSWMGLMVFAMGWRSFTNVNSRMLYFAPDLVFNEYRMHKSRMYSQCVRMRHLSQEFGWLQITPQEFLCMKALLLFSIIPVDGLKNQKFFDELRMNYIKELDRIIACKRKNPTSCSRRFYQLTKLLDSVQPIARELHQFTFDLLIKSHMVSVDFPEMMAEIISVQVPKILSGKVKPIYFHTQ
The experiment in a line: Competitive binding analysis on hAR extracts with 3H-DHT tracer. On the procedure:
The description below describes how the assay was carried out.
Competitive binding analysis was performed on baculovirus/Sf9 generated hAR extracts in the presence or absence of different concentrations of test agent and a fixed concentration of ^3H-dihydrotestosterone (^3H-DHT) as tracer. This binding assay method is a modification of a protocol previously described (Liao S., et. al. J. Steroid Biochem. 20:11-17 1984). Briefly, progressively decreasing concentrations of compounds are incubated in the presence of hAR extract (Chang et al. P.N.A.S. Vol. 89, pp. […], 1992), hydroxylapatite, and 1 nM^3 H-DHT for one hour at 4° C. Subsequently, the binding reactions are washed three times to completely remove excess unbound ^3H-DHT. hAR bound ^3H-DHT levels are determined in the presence of compounds (=i.e competitive binding) and compared to levels bound when no competitor is present (=i.e. maximum binding). Compound binding affinity to the hAR is expressed as the concentration of compound at which one half of the maximum binding is inhibited.

The next data set has as its target T2, androgen receptor (Homo sapiens, UniProt P10275, Q868H).
T2 construct: a human breast tumor cell line expressing androgen receptor; endogenous in cells; host or cells: MDA-MB453-MMTV clone 54-19 (MDA-MB-453 stably transfected with the MMTV-luciferase reporter only)
T2 sequence (P10275 1-920 Q868H): T1 sequence (P10275 1-920) with Q868H
Put plainly: AR antagonist cell assay (MDA-MB453-MMTV luciferase reporter, 100 pM DHT). It is filed as cell-based. On the procedure:
The compounds ability to antagonize the effects of androgen on the androgen receptor were determined in a whole cell assay as described immediately below.
Experimental Procedure for AR Antagonist Cell Assay
This cell line is a stable transfected cell line with MDA-MB453 cell background (a human breast tumor cell line expressing androgen receptor). A MMTV minimal promoter containing ARE was first cloned in front of a firefly luciferase reporter gene. Then the cascade was cloned into transfection vector pUV120puro. […] Puromycin resistant stable cell line was selected.
Cell Culture Media and Reagents:
Plating medium: DMEM (phenol red free), 10% charcoal treated HyClone serum, 1% L-glutamine
Assay medium: DMEM (phenol red free), 1% charcoal treated HyClone serum, 1% L-glutamine, and 1% penicillin/streptomycin
• 1. Cells are maintained in culture medium, splitting cells when they reach 80-90% confluence • 2. To test compounds, 10,000 cells/well are plated to opaque 96 cell culture plate in 100 uvwell plating medium, culture for overnight at 37° C. in cell culture incubator • 3. […] Add 10 ul/well freshly prepared DHT (final concentration at 100 pM) to each well, incubate at 37° C. for 17 hr (overnight) • 5.
The results are reported as the mean of multiple tests as described below (the numbers of tests are indicated in the footnote). N.D. denotes that the compound was not tested.

A further data set concerns Male C3H/HeN mice. The experiment in a line: Modified telogen conversion assay. It is filed as in vivo. As to conditions: 3% w/v in propylene glycol (30%)/ethanol (70%), topical, twice daily for 4 weeks. The text has this:
The telogen conversion assay measures the potential of a compound to convert mice in the resting stage of the hair growth cycle (“telogen”) to the active stage of the hair growth cycle (“anagen”). This assay takes advantage of the fact that the fur (i.e. hair) of 7 week old C3H/HeN mice is in the telogen phase. This phase continues until about 75 days of age. In this assay, selected areas of the mice are shaved, contacted with a test agent, or a control, and the difference in the rate of hair growth is measured (i.e. induction of the anagen phase). The first sign of anagen is the darkening of skin color as melanocytes in the follicles start to synthesize melanin, in preparation for the production of pigmented hairs. This model has a number of advantages. This includes the ready availability of female CH3HeN mice, the ability to screen large numbers of compounds quickly, and the ease of housing and handling such animals.
It has been discovered that male C3H/HeN mice may be used in the telogen conversion assay, when evaluating anti-androgen test compounds. Thus, the model relates to a modification of the existing telogen conversion assay. […]
The treatment area was observed and graded every other day for signs of hair growth. The hair growth response was quantified by recording, for each animal, the day on which signs of hair growth first appeared over the treated area. […]

The conditions of data set [2]: after 7 years of treatment; cited from earlier work.
[3] abbreviates: baculovirus/Sf9 generated hAR extract, 1 nM 3H-DHT, one hour at 4° C., mean of repeated tests, read-out: AR Binding IC50.
The mark [4] stands for this setting: MDA-MB453-MMTV clone 54-19, 100 pM DHT, 17 hr, mean of multiple tests, read-out: AR Cell IC50.

In the case of “2-Chloro-6-(methyl-propyl-amino)-4-trifluoromethyl-nicotinonitrile [Example 12]”, the IC50 in data set [1] (setting [3]) is 88 nM; on androgen receptor (setting [4]) it was 587 nM.
For the molecule `C[C@H](c1ccccc1)N(C)c1cc(C(F)(F)F)c(C#N)cn1` (hydrate or solvate) [Example 1, (R)-(+)-6-[Methyl-(1-Phenyl-ethyl)-amino]-4-trifluoromethyl-nicotinonitrile], the melting point lay within 47.2 to 47.7 °C.
Consider `C[C@H](c1ccccc1)N(C)c1cc(C(F)(F)F)c(C#N)cn1` [Example 1, (R)-(+)-6-[Methyl-(1-Phenyl-ethyl)-amino]-4-trifluoromethyl-nicotinonitrile], for which the IC50 came out at 20 nM in data set [1] and 45 nM against androgen receptor. For the same molecule, the “hair growth (induction of anagen)” value in the data set with Male C3H/HeN mice was “produced substantial hair growth”.
On to `CC(c1ccccc1)N(C)c1cc(C(F)(F)F)c(C#N)cn1` (centres unmarked) [Example 2, 6-[Methyl-(1-Phenyl-ethyl)-amino]-4-trifluoromethyl-nicotinonitrile], for which the IC50 is 123 nM in data set [1] and 229 nM against androgen receptor.
Consider `CCCN(CCC)c1cc(C(F)(F)F)c(C#N)cn1` [Example 3, 6-Dipropylamino-4-trifluoromethyl-nicotinonitrile], for which the figures for the IC50 (in data set [1]; at androgen receptor (setting [4])) were 22 nM and over 1000 nM, respectively.
As to `CCC(C)N(C)c1cc(C(F)(F)F)c(C#N)cn1` (centres unmarked) [Example 4, 6-(sec-Butyl-methyl-amino)-4-trifluoromethyl-nicotinonitrile], the IC50 in data set [1] is 10 nM; on androgen receptor (setting [4]), over 1000 nM.
On to `CCCCN(CCO)c1cc(C(F)(F)F)c(C#N)cn1` [Example 5, 6-[Butyl-(2-hydroxy-ethyl)-amino]-4-trifluoromethyl-nicotinonitrile], for which the IC50 in data set [1] (setting [3]) amounted to 548 nM.
The same measure, in the same setting: the same measure for `CN(Cc1ccccc1)c1cc(C(F)(F)F)c(C#N)cn1` [Example 7, 6-(Benzyl-methyl-amino)-4-trifluoromethyl-nicotinonitrile]: 538 nM.
For the molecule `CCCN(c1cc(C(F)(F)F)c(C#N)cn1)C1CCCCC1` [Example 8, 6-(Cyclohexyl-propyl-amino)-4-trifluoromethyl-nicotinonitrile], the half-maximal inhibitory concentration (IC50) in data set [1] (setting [3]) turned out to be 425 nM.
`CCC(C)N(C)c1cc(C(F)(F)F)c(C#N)c(Cl)n1` (centres unmarked) [Example 10]: the values for the IC50 (in data set [1]; at androgen receptor (setting [4])) were 0.5 nM and over 1000 nM, respectively.
The matching figures for `CCCN(CCC)c1cc(C(F)(F)F)c(C#N)c(Cl)n1` [Example 11, 6-Dipropylamino-2-chloro-4-rtifluoromethyl-nicotinonitrile]: 8.2 nM and over 1000 nM.
Turning to `NCCCC(O)(P(=O)(O)O)P(=O)(O)O` [alendronate], the “increase in spinal BMD” value in data set [2] is given as at most 11%.
